21 compounds from PubChem BioAssay AID248 (DTP/NCI, 2004) can be followed below.

Toxic doses and inconclusive results are not listed. Peptide text beside a SMILES is read from it. * marks the point of attachment. Cbz = O=C(OCc1ccccc1)*

The test system of the test is L1210 leukemia ip in BDF1 mice, survival T/C. Nature of the test: NCI In Vivo Anticancer Drug Screen. Data for tumor model L1210 Leukemia (intraperitoneal) in B6D2F1 (BDF1) mice. The settings on record: endpoint: mean survival time, higher = longer survival. In outline:
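Tumor cells were implanted, animals were treated, and survival was followed. The result divides the treated measurement by the vehicle-control measurement.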

The mark [1] stands for this setting: dose: 100.0 mg/kg/injection, schedule: Q04DX003 (ip), vehicle: Klucel (hydroxypropylcellulose) (HPC).
Setting [2] is: dose: 200.0 mg/kg/injection, schedule: Q04DX003 (ip), vehicle: Klucel (hydroxypropylcellulose) (HPC).
Where [3] appears, read: dose: 400.0 mg/kg/injection, schedule: Q04DX003 (ip), vehicle: Klucel (hydroxypropylcellulose) (HPC).
Where [4] appears, read: dose: 100.0 mg/kg/injection, schedule: Q01DX009 (ip), vehicle: saline with Tween-80.
Where [5] appears, read: dose: 200.0 mg/kg/injection, schedule: Q01DX009 (ip), vehicle: saline with Tween-80.
Setting [6] is: dose: 400.0 mg/kg/injection, schedule: Q01DX009 (ip), vehicle: saline with Tween-80.
Where [7] appears, read: dose: 100.0 mg/kg/injection, schedule: Q04DX003 (ip), vehicle: saline with Tween-80.
The mark [8] stands for this setting: dose: 200.0 mg/kg/injection, schedule: Q04DX003 (ip), vehicle: saline with Tween-80.
The mark [9] stands for this setting: dose: 400.0 mg/kg/injection, schedule: Q04DX003 (ip), vehicle: saline with Tween-80.
The mark [10] stands for this setting: dose: 100.0 mg/kg/injection, schedule: Q01DX001 (ip), vehicle: saline.
Setting [11] is: dose: 200.0 mg/kg/injection, schedule: Q01DX001 (ip), vehicle: saline.
Where [12] appears, read: dose: 400.0 mg/kg/injection, schedule: Q01DX001 (ip), vehicle: saline.
The mark [13] stands for this setting: dose: 50.0 mg/kg/injection, schedule: Q01DX001 (ip), vehicle: saline.

`CCC(CO)NC(=O)/C=C/c1cc(OC)ccc1OC` (stereo not given): the T/C was 111 % of control (dose: 150.0 mg/kg/injection, schedule: Q04DX003 (ip), vehicle: saline with Tween-80); 102 % of control (dose: 300.0 mg/kg/injection, schedule: Q04DX003 (ip), vehicle: saline with Tween-80); 109 % of control (dose: 600.0 mg/kg/injection, schedule: Q04DX003 (ip), vehicle: saline with Tween-80).

As to `CC(=O)N(C(C)=O)c1ccc2c(c1)-n1cccc1C2=O`, the T/C runs as follows: under setting [1], 100 % of control; under setting [2], 101 % of control; under setting [3], 98 % of control.

For `CC[N-]c1nncs1.CC[N-]c1nncs1.CC[N-]c1nncs1.CC[N-]c1nncs1.[Cl][Rh][Cl]`, the T/C (dose: 3.13 mg/kg/injection, schedule: Q04DX003 (ip), vehicle: distilled water + Tween-80) is 101 % of control; the T/C (dose: 6.25 mg/kg/injection, schedule: Q04DX003 (ip), vehicle: distilled water + Tween-80) is 104 % of control; the T/C (dose: 12.5 mg/kg/injection, schedule: Q04DX003 (ip), vehicle: distilled water + Tween-80) is 98 % of control; the T/C (dose: 25.0 mg/kg/injection, schedule: Q04DX003 (ip), vehicle: distilled water + Tween-80) is 92 % of control; the T/C (dose: 50.0 mg/kg/injection, schedule: Q04DX003 (ip), vehicle: distilled water + Tween-80) was 93 % of control; the T/C (dose: 100.0 mg/kg/injection, schedule: Q04DX003 (ip), vehicle: distilled water + Tween-80) is 104 % of control.

On to `COc1cc(C=O)cc(Br)c1O`, for which the T/C was 97 % of control (dose: 100.0 mg/kg/injection, schedule: Q04DX002 (ip), vehicle: saline with Tween-80); 93 % of control (dose: 200.0 mg/kg/injection, schedule: Q04DX002 (ip), vehicle: saline with Tween-80); 87 % of control (dose: 400.0 mg/kg/injection, schedule: Q04DX002 (ip), vehicle: saline with Tween-80).

Regarding `O=C(O)c1c(O)cc(=O)oc1-c1ccc(Cl)cc1Cl`, the T/C is, setting by setting: (dose: 75.0 mg/kg/injection, schedule: Q01DX001 (ip), vehicle: saline) 101 % of control; (dose: 150.0 mg/kg/injection, schedule: Q01DX001 (ip), vehicle: saline) 101 % of control; (dose: 300.0 mg/kg/injection, schedule: Q01DX001 (ip), vehicle: saline) 106 % of control.

For the compound `Nc1cc(OCc2ccccc2)cc(OCc2ccccc2)c1`, the T/C (dose: 25.0 mg/kg/injection, schedule: Q01DX009 (ip), vehicle: water) was 89 % of control; the T/C (dose: 50.0 mg/kg/injection, schedule: Q01DX009 (ip), vehicle: water) is 97 % of control; the T/C (dose: 100.0 mg/kg/injection, schedule: Q01DX009 (ip), vehicle: water) is 93 % of control.

Turning to `CCCN=Cc1cnc(C#N)c(N)n1`, the T/C is 97 % of control (dose: 100.0 mg/kg/injection, schedule: Q04DX002 (ip), vehicle: Klucel (hydroxypropylcellulose) (HPC)); 94 % of control (dose: 200.0 mg/kg/injection, schedule: Q04DX002 (ip), vehicle: Klucel (hydroxypropylcellulose) (HPC)); 97 % of control (dose: 400.0 mg/kg/injection, schedule: Q04DX002 (ip), vehicle: Klucel (hydroxypropylcellulose) (HPC)).

`COc1cc(NC(=O)Oc2ccc([N+](=O)[O-])cc2)ccc1S(=O)(=O)F`: the T/C under setting [4] is 94 % of control, the T/C under setting [5] is 103 % of control and the T/C under setting [6] was 103 % of control.

For the compound `C1=NCCCN2CCCCC12` (stereo not given), the T/C was 92 % of control (dose: 2.35 mg/kg/injection, schedule: Q01DX009 (ip), vehicle: Klucel (hydroxypropylcellulose) (HPC)); 92 % of control (dose: 4.69 mg/kg/injection, schedule: Q01DX009 (ip), vehicle: Klucel (hydroxypropylcellulose) (HPC)); 97 % of control (dose: 9.38 mg/kg/injection, schedule: Q01DX009 (ip), vehicle: Klucel (hydroxypropylcellulose) (HPC)); 106 % of control (dose: 18.75 mg/kg/injection, schedule: Q01DX009 (ip), vehicle: Klucel (hydroxypropylcellulose) (HPC)).

Take `CCCCCCCCCC[n+]1cccc(C(N)=O)c1`: the T/C is, setting by setting: (dose: 5.0 mg/kg/injection, schedule: Q04DX003 (ip), vehicle: saline) 93 % of control; (dose: 10.0 mg/kg/injection, schedule: Q04DX003 (ip), vehicle: saline) 96 % of control; (dose: 20.0 mg/kg/injection, schedule: Q04DX003 (ip), vehicle: saline) 96 % of control.

Take `O=NN(CCCl)C(=O)NCCc1cccc[n+]1[O-]`: the T/C runs as follows: (dose: 6.25 mg/kg/injection, schedule: Q01DX001 (ip), vehicle: water) 154 % of control; (dose: 12.5 mg/kg/injection, schedule: Q01DX001 (ip), vehicle: water) 184 % of control; (dose: 25.0 mg/kg/injection, schedule: Q01DX001 (ip), vehicle: water) 312 % of control.

As for `O=C(NC(O)C(Cl)(Cl)Cl)c1ccccc1O` (stereo not given), the T/C under setting [4] is 95 % of control; the T/C under setting [7] was 93 % of control; the T/C under setting [5] was 103 % of control; the T/C under setting [8] is 95 % of control; the T/C under setting [9] is 95 % of control.

As to `O=[N+]([O-])c1ccc(C2=Cc3cccn3-c3ccccc3S2(=O)=O)cc1`, the T/C under setting [1] was 96 % of control, the T/C under setting [2] was 95 % of control and the T/C under setting [3] was 98 % of control.

`COC(=O)CSC/C(=N\Nc1ccccc1)c1ccccc1`: the T/C is, setting by setting: (dose: 50.0 mg/kg/injection, schedule: Q04DX003 (ip), vehicle: saline) 106 % of control; under setting [10], 104 % of control; (dose: 100.0 mg/kg/injection, schedule: Q04DX003 (ip), vehicle: saline) 94 % of control; under setting [11], 98 % of control; (dose: 200.0 mg/kg/injection, schedule: Q04DX003 (ip), vehicle: saline) 97 % of control; under setting [12], 93 % of control. In addition, the T/C (dose: 400.0 mg/kg/injection, schedule: Q04DX003 (ip), vehicle: saline) was 89 % of control.

For `COC(=O)C(CC(C)C)NC(=O)C(CC(N)=O)NC(=O)OCc1ccccc1` (stereo not drawn) (Cbz-Asn-Leu-OMe; configuration not given here), the T/C runs as follows: under setting [10], 96 % of control; under setting [11], 93 % of control; under setting [12], 98 % of control.

For `Clc1cc(Cl)c(C[N+]23CN4CN(CN(C4)C2)C3)cc1Cl`, the T/C (dose: 12.5 mg/kg/injection, schedule: Q01DX009 (ip), vehicle: saline with Tween-80) was 102 % of control; the T/C (dose: 25.0 mg/kg/injection, schedule: Q01DX009 (ip), vehicle: saline with Tween-80) is 104 % of control; the T/C (dose: 50.0 mg/kg/injection, schedule: Q01DX009 (ip), vehicle: saline with Tween-80) is 102 % of control; the T/C under setting [4] was 120 % of control; the T/C under setting [5] was 121 % of control.

On to `CC(=O)Nc1ccc(OC(=O)Oc2ccc(NC(C)=O)cc2)cc1`, for which the T/C is 101 % of control under setting [13], 97 % of control under setting [10], 95 % of control under setting [11] and 95 % of control under setting [12].

Take `C1=C(c2ccccc2)c2ccccc2CC1`: the T/C by setting is: under setting [13], 96 % of control; under setting [10], 102 % of control; under setting [11], 106 % of control.

Consider `CC(C)C(C(=O)c1ccccc1)c1ccccc1` (stereo not given), for which the T/C by setting is: under setting [4], 93 % of control; under setting [7], 99 % of control; under setting [5], 93 % of control; under setting [8], 100 % of control; under setting [6], 104 % of control; under setting [9], 89 % of control.

On to `O=C(O)C(Br)C(Br)C(=O)Nc1cccc(C(F)(F)F)c1` (stereo not given), for which the T/C reads like this: (dose: 25.0 mg/kg/injection, schedule: Q01DX009 (ip), vehicle: Klucel (hydroxypropylcellulose) (HPC)) 96 % of control; (dose: 50.0 mg/kg/injection, schedule: Q01DX009 (ip), vehicle: Klucel (hydroxypropylcellulose) (HPC)) 96 % of control; (dose: 100.0 mg/kg/injection, schedule: Q01DX009 (ip), vehicle: Klucel (hydroxypropylcellulose) (HPC)) 103 % of control; (dose: 100.0 mg/kg/injection, schedule: Q01DX009 (ip), vehicle: other) 96 % of control.

Take `O=C(O)C(CCc1ccccc1)N1CCOCC1` (stereo not given): the T/C (dose: 100.0 mg/kg/injection, schedule: Q01DX009 (ip), vehicle: saline) was 100 % of control; the T/C (dose: 200.0 mg/kg/injection, schedule: Q01DX009 (ip), vehicle: saline) is 101 % of control; the T/C (dose: 400.0 mg/kg/injection, schedule: Q01DX009 (ip), vehicle: saline) is 103 % of control.
